Results: patent US20250230193A1, “CYCLIC COMPOUND HAVING SELECTIVE KRAS INHIBITORY EFFECT ON HRAS AND NRAS” (CHUGAI SEIYAKU KABUSHIKI KAISHA, priority 2022, published 2025)
*1 amine or outer side, *2 acyl side, *3 side chain or, on linkers, in order; H or OH if unused. Where a SMILES comes first, the peptide text is derived from it. Bridges are numbered along the chain shown (N, C = ends). [ ]: non-standard residue; d: D form. The star is where a group is joined. hPhe(3,5-F2-4-CF3) = N[C@@H](CCc1cc(F)c(C(F)(F)F)c(F)c1)C(=O)O; hPhe(3-Cl-4-CF3) = N[C@@H](CCc1ccc(C(F)(F)F)c(Cl)c1)C(=O)O; NPrPhe(4-CF3) = CCCN[C@@H](Cc1ccc(C(F)(F)F)cc1)C(=O)O; NEtAsp = CCN([C@@H](CC(=O)[*:3])C(=O)[*:2])[*:1]; NMeGly(cPent) = CN[C@H](C(=O)O)C1CCCC1; NMeD = CN[C@@H](CC(=O)O)C(=O)O; NMeL = CN[C@@H](CC(C)C)C(=O)O; Morpholide = C1CN(*)CCO1; NMeA = CN[C@@H](C)C(=O)O; Ac5c = NC1(C(=O)O)CCCC1; Aze = O=C(O)[C@@H]1CCN1; Ac4c = NC1(C(=O)O)CCC1; Sar = CNCC(=O)O

Columns and labels:
[1] = target: GDP-bound HRAS wild-type protein (Homo sapiens, UniProt P01112); assay: Binding to HRAS by surface plasmon resonance (SPR), Single Cycle Kinetics; details: SPR; for HRAS/KRAS (ratio of KD value with respect to HRAS to KD value with respect to KRAS) / HRAS/KRAS (ratio of KD value for HRAS to KD value for KRAS): GDP-bound HRAS wild-type vs GDP-bound KRAS wild-type
[2] = target: GDP-bound NRAS wild-type protein (Homo sapiens, UniProt P01111); assay: Binding to NRAS by surface plasmon resonance (SPR), Single Cycle Kinetics; details: SPR; for NRAS/KRAS (ratio of KD value with respect to NRAS to KD value with respect to KRAS) / NRAS/KRAS (ratio of KD value for NRAS to KD value for KRAS): GDP-bound NRAS wild-type vs GDP-bound KRAS wild-type
GDP-bound NRAS wild-type protein, sequence (P01111 whole entry): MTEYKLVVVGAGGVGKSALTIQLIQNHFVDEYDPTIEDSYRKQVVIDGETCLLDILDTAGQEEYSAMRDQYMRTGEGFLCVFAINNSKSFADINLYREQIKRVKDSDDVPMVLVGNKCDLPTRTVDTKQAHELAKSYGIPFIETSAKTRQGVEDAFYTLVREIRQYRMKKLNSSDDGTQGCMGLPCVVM

GDP-bound HRAS wild-type protein, sequence (P01112 whole entry): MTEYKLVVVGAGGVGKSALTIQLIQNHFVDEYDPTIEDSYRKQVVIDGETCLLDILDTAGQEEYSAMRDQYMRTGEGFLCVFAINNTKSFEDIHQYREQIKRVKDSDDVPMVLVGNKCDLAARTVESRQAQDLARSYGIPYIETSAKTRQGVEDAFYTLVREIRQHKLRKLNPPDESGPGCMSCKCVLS

## CC[C@H](C)[C@@H]1NC(=O)[C@H](COC)N(C)C(=O)C[C@@H](C(=O)N2CCOCC2)N(C)C(=O)[C@H](C2CCCC2)N(C)C(=O)C2(CCCC2)NC(=O)[C@@H]2CCCN2C(=O)[C@H](CCc2cc(F)c(C(F)(F)F)c(F)c2)NC(=O)CN(C)C(=O)[C@H](Cc2ccc(C(F)(F)F)cc2)N2CCCCC[C@@H](C2=O)N(C)C(=O)CN(C)C1=O [PP0845]
[1]; KD ratio
  HRAS/KRAS (ratio of KD value with respect to HRAS to KD value with respect to KRAS): B (a compound having 3 or more and less than 10 is denoted as B)
[2]; KD ratio
  NRAS/KRAS (ratio of KD value with respect to NRAS to KD value with respect to KRAS): B (a compound having 3 or more and less than 10 is denoted as B)

## CCO[C@@H]1C[C@H]2C(=O)NC3(CC(C)(C)C3)C(=O)N(C)[C@@H](C3CCCC3)C(=O)N(C)[C@H](C(=O)N(C)C)CC(=O)N(C)[C@H]3CCCC/C=C/c4ccc(cc4)C[C@@H](C(=O)N(C)CC(=O)N[C@@H](CCc4cc(F)c(C(F)(F)F)c(F)c4)C(=O)N2C1)N1CC/C=C\C[C@@H](C1=O)N(C)C(=O)CN(C)C(=O)[C@H]([C@@H](C)CC)NC3=O [PP1831]
[1]; KD ratio
  HRAS/KRAS (ratio of KD value for HRAS to KD value for KRAS): A (a compound having 10 or more and less than 20 is denoted as A)
[2]; KD ratio
  NRAS/KRAS (ratio of KD value for NRAS to KD value for KRAS): A (a compound having 10 or more and less than 20 is denoted as A)

## CCO[C@@H]1C[C@H]2C(=O)NC3(CCC3)C(=O)N(C)[C@@H](C3CCCC3)C(=O)N(C)[C@H](C(=O)N(C)C)CC(=O)N(C)[C@H]3CCCCCCc4ccc(cc4)C[C@@H](C(=O)N(C)CC(=O)N[C@@H](CCc4ccc(C(F)(F)F)c(OC)c4)C(=O)N2C1)N1CC/C=C\C[C@@H](C1=O)N(C)C(=O)CN(C)C(=O)[C@H]([C@@H](C)CC)NC3=O [PP2264]
[1]
  HRAS/KRAS (ratio of KD value with respect to HRAS to KD value with respect to KRAS): A (a compound having 10 or more and less than 20 is denoted as A)
[2]
  NRAS/KRAS (ratio of KD value with respect to NRAS to KD value with respect to KRAS): AA (a compound having 20 or more is denoted as AA)

## CCOC[C@H]1C(=O)N[C@@H]([C@@H](C)CC)C(=O)N(C)CC(=O)N(C)[C@H]2C/C=C\CCN(C2=O)[C@@H](CC2CCC(F)(F)CC2)C(=O)N(C)CC(=O)N[C@@H](CCc2ccc(C(F)(F)F)c(Cl)c2)C(=O)N2C[C@H](OCC)C[C@H]2C(=O)NC2(CC(C)(C)C2)C(=O)N(C)[C@@H](C(CC)CC)C(=O)N(C)[C@H](C(=O)N(C)C)CC(=O)N1C [PP2460]
[1]
  HRAS/KRAS (ratio of KD value with respect to HRAS to KD value with respect to KRAS): A (a compound having 10 or more and less than 20 is denoted as A)
[2]
  NRAS/KRAS (ratio of KD value with respect to NRAS to KD value with respect to KRAS): A (a compound having 10 or more and less than 20 is denoted as A)

## CCCN1C(=O)CN(C)C(=O)CN(C)C(=O)[C@H]([C@@H](C)CC)NC(=O)[C@H](CC(C)C)N(C)C(=O)C[C@@H](C(=O)N2CCOCC2)N(C)C(=O)[C@H](C2CCCC2)N(C)C(=O)C2(CCCC2)NC(=O)[C@@H]2CCCN2C(=O)[C@H](CCc2ccc(C(F)(F)F)c(Cl)c2)NC(=O)CN(C)C(=O)[C@@H]1Cc1ccc(C(F)(F)F)cc1 [PP0060] ([NMeL]I[Sar][Sar][NPrPhe(4-CF3)][Sar][hPhe(3-Cl-4-CF3)]P[Ac5c][NMeGly(cPent)][NMeD]-Morpholide; lactam N-11)
[1]; KD ratio HRAS/KRAS
  HRAS/KRAS (ratio of KD for GDP-bound HRAS wild-type to KD for KRAS): B (a compound having 3 or more and less than 10 is denoted as B)
[2]; KD ratio NRAS/KRAS
  NRAS/KRAS (ratio of KD for GDP-bound NRAS wild-type to KD for KRAS): B (a compound having 3 or more and less than 10 is denoted as B)

## CCCN1C(=O)[C@@H]2CCN2C(=O)[C@H](C)N(C)C(=O)[C@H]([C@@H](C)CC)NC(=O)[C@H](CC(C)C)N(C)C(=O)C[C@@H](C(=O)N(C)C)N(CC)C(=O)[C@H](C2CCCC2)N(C)C(=O)C2(CCC2)NC(=O)[C@@H]2CCCN2C(=O)[C@H](CCc2ccc(C(F)(F)F)c(Cl)c2)NC(=O)CN(C)C(=O)[C@@H]1Cc1ccc(C(F)(F)F)cc1 [PP1957] ([NMeL]I[NMeA][Aze][NPrPhe(4-CF3)][Sar][hPhe(3-Cl-4-CF3)]P[Ac4c][NMeGly(cPent)][NEtAsp]-NMe2; lactam N-11)
[1]; KD ratio
  HRAS/KRAS (ratio of KD value for HRAS to KD value for KRAS): B (a compound having 3 or more and less than 10 is denoted as B)
[2]; KD ratio
  NRAS/KRAS (ratio of KD value for NRAS to KD value for KRAS): C (A compound having a KD ratio of 0.1 or more and less than 3 is denoted as C)

## CCCN1C(=O)CN(C)C(=O)CN(C)C(=O)[C@H]([C@@H](C)CC)NC(=O)[C@H](CC(C)C)N(C)C(=O)C[C@@H](C(=O)N(C)C)N(C)C(=O)[C@H](C2CCCC2)N(C)C(=O)C2(CCCC2)NC(=O)[C@@H]2CCCN2C(=O)[C@H](CCc2cc(F)c(C(F)(F)F)c(F)c2)NC(=O)CN(C)C(=O)[C@@H]1Cc1ccc(C(F)(F)F)cc1 [PP0788] ([NMeL]I[Sar][Sar][NPrPhe(4-CF3)][Sar][hPhe(3,5-F2-4-CF3)]P[Ac5c][NMeGly(cPent)][NMeD]-NMe2; lactam N-11)
[1]; KD ratio HRAS/KRAS
  HRAS/KRAS (ratio of KD value with respect to GDP-bound HRAS wild-type protein to KD value with respect to KRAS): C (A compound having a KD ratio of 0.1 or more and less than 3 is denoted as C)
[2]; KD ratio NRAS/KRAS
  NRAS/KRAS (ratio of KD value with respect to GDP-bound NRAS wild-type protein to KD value with respect to KRAS): B (a compound having 3 or more and less than 10 is denoted as B)

## CCCOC[C@H]1C(=O)N[C@@H]([C@@H](C)CC)C(=O)N(C)CC(=O)N(C)[C@H]2C/C=C\CCN(C2=O)[C@@H](Cc2ccc(C(F)(F)F)cc2)C(=O)N(C)CC(=O)N[C@@H](CCc2ccc(C(F)(F)F)c(OC)c2)C(=O)N2C[C@H](OCC)C[C@H]2C(=O)NC2(CC(C)(C)C2)C(=O)N(C)[C@@H](C2CCCC2)C(=O)N(C)[C@H](C(=O)N(C)CC)CC(=O)N1C [PP1973]
[1]; KD ratio
  HRAS/KRAS (ratio of KD value for HRAS to KD value for KRAS): B (a compound having 3 or more and less than 10 is denoted as B)
[2]; KD ratio
  NRAS/KRAS (ratio of KD value for NRAS to KD value for KRAS): A (a compound having 10 or more and less than 20 is denoted as A)
